Data as given in patent US8093281B2, “Indazoles as glucocorticoid receptor ligands” (Glaxo Group Limited, priority 2005, dated 2012).

Assays:
[1] = test system: NFkB activity; assay: Glucocorticoid mediated transrepression of NFkB activity (A549 cells, ELAM promoter alkaline phosphatase reporter, TNFα stimulated); type: cell-based; conditions: Homo sapiens, A549, 16 h, Human A549 lung epithelial cells, 3 ng/ml human recombinant TNFα, read-out: pEC50, transrepression of NFkB activity (converted)
Source text: Human A549 lung epithelial cells were engineered to contain a secreted placental alkaline phosphatase gene under the control of the distal region of the NFkB dependent ELAM promoter as previously described in Ray, K. P., Farrow, S., Daly, M., Talabot, F. and Searle, N. “Induction of the E-selectin promoter by interleukin 1 and tumour necrosis factor alpha, and inhibition by glucocorticoids” Biochemical Journal (1997) 328: 707-15.
Compounds were solvated and diluted in DMSO, and transferred directly into assay plates such that the final concentration of DMSO was 0.7%. Following the addition of cells (40K per well), plates were incubated for 1 hr prior to the addition of 3 ng/ml human recombinant TNFα. Following continued incubation for 16 hr, alkaline phosphatase activity was determined by measuring the change in optical density at 405 nm with time following the addition of 0.7 volumes of assay buffer (1 mg/ml p-nitrophenylphosphate dissolved in 1M diethanolamine, 0.28M NaCl, 0.5 mM MgCl2). Dose response curves were constructed from which EC50 values were estimated.

[2] = biological target: T1, Progesterone Receptor (Homo sapiens, UniProt P06401); assay: Assay for progesterone receptor activity (CV-1 cells transduced with PRb-BacMam and MMTV-BacMam); type: cell-based; conditions: 24 h, read-out: pEC50, progesterone receptor activity (converted)
T1 construct: expressed in transfected cells; host or cells: CV-1 cells transduced with PRb-BacMam and MMTV-BacMam (luciferase reporter)
T1 sequence (P06401 1-933): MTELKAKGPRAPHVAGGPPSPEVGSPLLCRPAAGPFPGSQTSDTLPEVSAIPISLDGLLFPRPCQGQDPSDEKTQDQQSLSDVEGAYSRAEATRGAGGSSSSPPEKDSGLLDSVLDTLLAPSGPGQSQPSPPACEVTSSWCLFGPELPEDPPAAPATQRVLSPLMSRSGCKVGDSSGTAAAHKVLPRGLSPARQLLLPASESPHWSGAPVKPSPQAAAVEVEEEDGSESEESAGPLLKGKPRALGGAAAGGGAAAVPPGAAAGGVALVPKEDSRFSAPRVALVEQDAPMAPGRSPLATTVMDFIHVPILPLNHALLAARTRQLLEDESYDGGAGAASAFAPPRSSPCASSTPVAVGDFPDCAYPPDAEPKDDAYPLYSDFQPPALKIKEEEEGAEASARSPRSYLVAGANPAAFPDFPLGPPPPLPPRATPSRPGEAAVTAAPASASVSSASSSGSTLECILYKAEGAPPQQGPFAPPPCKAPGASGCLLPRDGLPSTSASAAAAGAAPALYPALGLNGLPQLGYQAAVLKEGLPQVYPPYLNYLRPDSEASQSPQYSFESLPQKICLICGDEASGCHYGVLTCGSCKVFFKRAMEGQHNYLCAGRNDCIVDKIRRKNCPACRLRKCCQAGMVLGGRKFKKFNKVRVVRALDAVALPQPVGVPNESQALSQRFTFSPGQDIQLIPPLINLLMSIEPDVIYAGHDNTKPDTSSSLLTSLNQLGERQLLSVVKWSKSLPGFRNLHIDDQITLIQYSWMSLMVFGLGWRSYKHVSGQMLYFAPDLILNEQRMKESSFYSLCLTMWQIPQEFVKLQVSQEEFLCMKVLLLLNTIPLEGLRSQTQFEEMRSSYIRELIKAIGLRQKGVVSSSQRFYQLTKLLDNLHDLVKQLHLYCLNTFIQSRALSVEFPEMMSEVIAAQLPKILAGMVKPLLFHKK
Protocol: A T225 flask of CV-1 cells at a density of 80% confluency was washed with PBS, detached from the flask using 0.25% trypsin and counted using a Sysmex KX-21N. Cells were diluted in DMEM containing 10% Hyclone, 2 mM […] and 1% Pen/Strep at 140 cells/μl and transduced with 10% PRb-BacMam and 10% MMTV-BacMam. […] of suspension cells were dispensed to each well of white Nunc 384-well plates, containing compounds at the required concentration. After 24 h 10 μl of Steady Glo were added to each well of the plates. Plates were incubated in the dark for 10 min before reading them on a Viewlux reader. Dose response curves were constructed from which pEC50 values were estimated.

## COc1ccc(-n2ncc3c(NCC(O)(CC(C)(C)c4cc(F)ccc4OC)C(F)(F)F)cccc32)cc1 (racemic) [Example 3, 1,1,1-Trifluoro-4-[5-fluoro-2-(methyloxy)phenyl-4-methyl-2-({1-[4-(methyloxy)phenyl]-1H-indazol-4-yl}amino)methyl]-2-pentanol]
[1]
  EC50: < 0.00316 µM
[2]
  EC50: > 10 µM

## COc1ccc(F)cc1C(C)(C)CC(O)(CNc1cccc2c1cnn2-c1ccncc1)C(F)(F)F (racemic) [Example 5, 1,1,1-Trifluoro-4-[5-fluoro-2-(methyloxy)phenyl]-4-methyl-2-({[1-(4-pyridinyl)-1H-indazol-4-yl]amino}methyl)-2-pentanol]
[1]
  EC50: < 0.00316 µM
[2]
  EC50: > 10 µM

## COc1ccc(F)cc1C(C)(C)CC(O)(CNc1cccc2c1cnn2-c1ccccc1)C(F)(F)F (racemic) [Example 7, 1,1,1-Trifluoro-4-[5-fluoro-2-(methyloxy)phenyl]-4-methyl-2-{[(1-phenyl-1H-indazol-4-yl)amino]methyl}-2-pentanol]
[1]
  EC50: < 0.00316 µM
[2]
  EC50: > 10 µM
